{
  "source": "patent US9758559B2",
  "about": "“Short peptides derived from VDAC1, compositions and methods of use thereof” (B.G. NEGEV TECHNOLOGIES AND APPLICATIONS LTD., AT …, priority 2013, dated 2017)",
  "key": {"[1]": {"tested_on": "human neuroblastoma cells (SH-SY5Y)", "experiment": "Cell death of SH-SY5Y cells, PI staining and flow cytometry", "assay_type": "cell-based", "details": "6 h, serum-free medium, PI-positive cells", "experimental": "(§1) The efficacy of the peptide comprising amino acids […] of the N-terminal domain of VDAC1, synthesized with D-amino acids (all D-stereomeric peptide) conjugated to the Antp sequence also synthesized from D-amino acids as a CPP (D-Δ(1-14) N-Ter-Antp, SEQ ID NO:9) was further examined for its activity of inducing cell death with brain tumor derived cell lines. Human primary glioblastoma cells (U-87), human neuroblastoma cells (SH-SY5Y) and rat glioblastoma cells (C6) were incubated (4×10^5 cells) for 6 h in a serum-free-medium containing different concentrations of D-Δ1-14N-Ter-Antp (SEQ ID NO:9). The previously disclosed LP4 peptide conjugated to Tf (Tf-D-LP4 peptide, SEQ ID NO:20) was used as a reference of activity. At the end of the incubation time the cells were stained with PI and the level of cell death, reflected by the percentage of PI-positive cells, was determined by flow cytometry."}, "[2]": {"tested_on": "rat glioblastoma cells (C6)", "experiment": "Cell death of C6 cells, PI staining and flow cytometry", "assay_type": "cell-based", "details": "6 h, serum-free medium, PI-positive cells", "experimental": "as §1"}, "[3]": {"tested_on": "human prostate cancer cell lines (PC3)", "assay_type": "cell-based", "source_text": "(§2) Data represent mean values, n=3.\n(§3) It was previously disclosed that peptide Antp-LP4 (SEQ ID NO:23) derived from another part of VDAC1, selectively induce cell death of cancerous cells co-expressing the cell surface markers CD19 and CD5 (U.S. Pat. No. 8,648,045) as well as other cancer cells as HeLa."}, "T-Rex-293 cells": {"tested_on": "T-Rex-293 cells", "assay_type": "cell-based", "source_text": "as §2, §3"}, "MEC-1 cells": {"tested_on": "MEC-1 cells", "assay_type": "cell-based", "details": "90 min incubation, serum-free medium, PI staining, FACS, read-out: IC50, induction of cell death, MEC-1", "experimental": "MEC-1, MO1043 and T-Rex-293 cells were grown in DMEM supplemented with 10% FCS, 2 mM L-glutamine, 1000 U/ml penicillin and 1 mg/ml streptomycin, U-87, C6 and PC3 were maintained in RPMI 1640 supplemented with 10-20% FCS, 2 mM L-glutamine, 1000 U/ml penicillin and 1 mg/ml streptomycin. All cells were maintained in a humidified atmosphere with 5% CO2 at 37° C.\nPBMCs (4×10^5 or 8×10^5 cells/sample) were incubated in 200 μl serum-free medium with the examined peptide for 90 min at room temperature and centrifuged (500×g, 5 min) Cell death was analyzed by PI staining and flow cytometer (Beckton-Dickinson) and BD Cell Quest Pro software. Apoptotic cell death was also analyzed by PI and annexin V-FITC staining (Zaid H et al. 2005. 12:751-760), and by acridine orange and ethidium bromide staining and confocal microscopy (Olympus 1×81).\nTo optimize the VDAC1 N-terminal derived peptides with respect to stability, length and specific targeting to cancer cells, several versions of these peptides were designed and tested for their efficacy in inducing the death of CLL-derived lymphocytes and MEC-1 cells (Table 3). Cells were incubated for 90 min with increasing concentrations of the indicated peptide and death was analyzed by PI stating and FACS as described hereinabove. As is clearly shown in FIG. 1 (and Table 3), deleting 6 residues from the C-terminus of the peptide, including the GXXXG motif, yielded a non-active peptide (peptide Δ(21-26) N-Ter-Antp, SEQ ID NO:22)."}, "[4]": {"tested_on": "Human primary glioblastoma cells (U-87)", "experiment": "Cell death of U-87 cells, PI staining and flow cytometry", "assay_type": "cell-based", "details": "6 h, serum-free medium, PI-positive cells; read-out: IC50, cell death, U87", "experimental": "as §1"}, "glioblastoma U-87 cells": {"tested_on": "glioblastoma U-87 cells", "experiment": "Mitochondrial membrane potential analysis (TMRM, FACS)", "assay_type": "cell-based, human", "details": "3 h incubation", "experimental": "U-87 cells were incubated with the indicated concentrations of D-Δ1-14N-Ter-Antp (SEQ ID NO:9), washed with PBS, incubated with or without the potentiometric fluorescent dye TMRM (200 nM, 20 min), washed with PBS and subjected to FACS analysis. FCCP, allowing for Δψ dissipation, served as a control.\nVDAC1 is a key component in regulating the energy production of the cell. It is known that cancer cells are characterized by elevated energy demand. The effects of D-Δ(1-14) N-Ter-Antp on the mitochondrial inner membrane polarization and cellular ATP level were examined using glioblastoma U-87 cells. U-87 cells were incubated for 3 h with the various concentrations of D-Δ1-14N-Ter-Antp or with FCCP (10 μM, control for depolarization) for 1 h."}, "U-87 cells": {"tested_on": "U-87 cells", "experiment": "TEM visualization of apoptotic cell death", "assay_type": "cell-based, human", "details": "2.8 μM peptide", "experimental": "Representative images of transmission electron microscopy (TEM) of untreated cells (FIG. 8A) or cells treated with 2.8 μM of D-Δ1-14N-Ter-Antp (FIG. 8B) are shown."}},
  "note": "Where a SMILES comes first, the peptide text is derived from it. [ ]: non-standard residue; d: D form.",
  "data": [
    {"smiles": "CC[C@@H](C)[C@@H](NC(=O)[C@@H](CCCCN)NC(=O)[C@H](NC(=O)[C@@H](CCC(N)=O)NC(=O)[C@@H](CCCNC(=N)N)NC(=O)[C@@H](CC(C)C)NC(=O)CNC(=O)[C@@H](Cc1ccccc1)NC(=O)CNC(=O)[C@@H](Cc1ccc(O)cc1)NC(=O)CNC(=O)[C@@H](CCCCN)NC(=O)[C@H](NC(=O)[C@@H](Cc1ccccc1)NC(=O)[C@H](NC(=O)[C@@H](CC(=O)O)NC(=O)[C@H](N)CCCNC(=N)N)C(C)C)[C@H](C)O)[C@H](C)CC)C(=O)N[C@H](Cc1c[nH]c2ccccc12)C(=O)N[C@H](Cc1ccccc1)C(=O)N[C@H](CCC(N)=O)C(=O)N[C@H](CC(N)=O)C(=O)N[C@H](CCCNC(=N)N)C(=O)N[C@H](CCCNC(=N)N)C(=O)N[C@H](CCSC)C(=O)N[C@H](CCCCN)C(=O)N[C@H](Cc1c[nH]c2ccccc12)C(=O)N[C@H](CCCCN)C(=O)N[C@H](CCCCN)C(=O)O", "note": "[D-Δ(1-14) N-Ter-Antp, ALL D-RDVFTKGYGFGL RQIKIWFQNRRMKWKK] (H-[dR][dD][dV][dF][dT][dK]G[dY]G[dF]G[dL][dR][dQ][dI][dK][dI][dW][dF][dQ][dN][dR][dR][dM][dK][dW][dK][dK]-OH)", "values": [
      {"measurement": "IC50", "setting": "[1]", "value": 2.05, "unit": "µM"},
      {"measurement": "IC50", "setting": "[2]", "value": 5.3, "unit": "µM"},
      {"measurement": "induction of cell death, in words", "setting": "[3]; PC3 cells", "value": "dramatic cell death"},
      {"measurement": "IC50", "setting": "[3]; prostate cell line PC3, read-out: IC50, cancer cell death, PC3", "value": 1.51, "unit": "µM"},
      {"measurement": "induction of cell death, in words", "setting": "T-Rex-293 cells; T-Rex-293 control cells", "value": "some induction of cell death"},
      {"measurement": "IC50", "setting": "T-Rex-293 cells; non-malignant cells TRex-293, read-out: IC50, cell death, non-malignant cells TRex-293", "value": "> 14.3", "unit": "µM"},
      {"measurement": "IC50", "setting": "MEC-1 cells", "value": "2.1 ± 0.3", "unit": "µM"},
      {"measurement": "IC50", "setting": "[4]", "value": 3.75, "unit": "µM"},
      {"measurement": "mitochondrial inner membrane polarization", "setting": "glioblastoma U-87 cells", "value": "induced mitochondrial inner membrane depolarization"},
      {"measurement": "apoptotic morphology by TEM", "setting": "U-87 cells", "value": "typical morphologic changes associated with apoptosis"}
    ]}
  ]
}
